Data reported in ChEMBL document CHEMBL1201862, “PubChem BioAssay data set” (2004).
The source made the active and inactive calls.

How the values were obtained:
[1] = Luminescence Cell-Based Dose Response HTS to Identify Activators of Luciferase Translation or Activity in H4-C Neuroglioblastoma Cells. [Related pubchem assays: 1829 (Project Summary), 1814 (Primary HTS)]; assay type: functional
[2] = Luminescence Cell-Based Dose Response to Identify Activators of 5'UTR Stem-Loop Driven Prion Protein mRNA Translation in H4-C Neuroglioblastoma Cells. [Related pubchem assays: 1829 (Project Summary), 1814 (Primary HTS)]; assay type: functional
[3] = Luminescence Cell-Based Dose Retest to Confirm Activators of 5'UTR Stem-Loop Driven Alpha-Synuclein mRNA Translation in H4 Neuroglioblastoma Cells. [Related pubchem assays (depositor defined):AID1813, AID1829]; assay type: functional
[4] = Luminescence Cell-Based Dose Response HTS to Identify Activators of 5'UTR Stem-Loop Driven Prion Protein mRNA Translation in H4-C Neuroglioblastoma Cells. [Related pubchem assays: 1829 (Project Summary), 1814 (Primary HTS)]; assay type: functional
[5] = Luminescence Cell-Based Dose Confirmation HTS to Identify Activators of 5'UTR Stem-Loop Driven Alpha-Synuclein mRNA Translation in H4 Neuroglioblastoma Cells. [Related pubchem assays: 1829 (Project Summary), 1814 (Primary HTS)]; assay type: functional
[6] = Luminescence Cell-Based Dose Response HTS to Identify Activators of Luciferase Translation or Activity in H4 […] Cells. [Related pubchem assays: 1829 (Project Summary), 1814 (Primary HTS)]; assay type: functional
[7] = test system: H4; assay: Luminescence Cell-Based Dose Response HTS to Identify Activators of 5'UTR Stem-Loop Driven Prion Protein mRNA Translation in H4 Neuroglioblastoma Cells. [Related pubchem assays: 1829 (Project Summary), 1814 (Primary HTS)]; assay type: functional; settings: Homo sapiens
[8] = Luminescence Cell-Based Dose Response to Identify Activators of Luciferase Translation or Activity in H4-C Neuroglioblastoma Cells. [Related pubchem assays: 1829 (Project Summary), 1814 (Primary HTS)]; assay type: functional
[9] = Luminescence Cell-Based Dose Confirmation to Identify Activators of 5'UTR Stem-Loop Driven Alpha-Synuclein mRNA Translation in H4 Neuroglioblastoma Cells. [Related pubchem assays: 1829 (Project Summary), 1814 (Primary HTS)]; assay type: functional
[10] = target: T1, Epstein-Barr nuclear antigen 1 (Epstein-Barr virus (strain B95-8) (HHV-4) (Human herpesvirus 4), UniProt P03211); assay: inhibition of EBV nuclear antigen 1 DNA binding – biochemical, fluorescence polarization, 1536-well, dose response (AID 2381); design: species or system human gammaherpesvirus 4;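 further: fluorescence polarization of a Cy5 DNA probe bound by EBNA-1 protein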
T1 sequence (P03211 whole entry): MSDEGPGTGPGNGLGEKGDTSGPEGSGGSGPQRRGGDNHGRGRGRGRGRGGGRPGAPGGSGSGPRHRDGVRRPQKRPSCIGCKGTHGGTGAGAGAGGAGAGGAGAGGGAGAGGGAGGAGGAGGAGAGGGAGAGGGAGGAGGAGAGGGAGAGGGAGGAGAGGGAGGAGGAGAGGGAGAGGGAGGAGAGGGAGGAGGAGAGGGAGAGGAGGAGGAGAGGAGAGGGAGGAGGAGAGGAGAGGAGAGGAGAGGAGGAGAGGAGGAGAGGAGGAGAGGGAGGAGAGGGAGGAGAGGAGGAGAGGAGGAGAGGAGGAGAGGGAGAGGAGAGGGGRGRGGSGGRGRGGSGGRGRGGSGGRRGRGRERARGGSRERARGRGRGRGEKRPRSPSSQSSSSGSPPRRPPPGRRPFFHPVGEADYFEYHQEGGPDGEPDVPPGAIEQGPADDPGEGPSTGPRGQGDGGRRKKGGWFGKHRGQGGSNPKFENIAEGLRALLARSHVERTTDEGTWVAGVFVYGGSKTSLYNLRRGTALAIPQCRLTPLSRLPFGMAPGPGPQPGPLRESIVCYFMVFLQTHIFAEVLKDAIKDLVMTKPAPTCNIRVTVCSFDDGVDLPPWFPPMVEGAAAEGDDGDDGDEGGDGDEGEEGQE

[11] = target: T2, Lytic switch protein BZLF1 (Epstein-Barr virus (strain B95-8) (HHV-4) (Human herpesvirus 4), UniProt P03206); assay: inhibition of BZLF1 ZTA DNA binding – biochemical, fluorescence polarization, Epstein-Barr virus, 1536-well, counter-screen for EBNA-1 inhibitor project, dose response (AID 2377); design: species or system human gammaherpesvirus 4;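 further: fluorescence polarization of Cy5-labelled ZRE DNA probe bound by purified Zta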
T2 sequence (P03206 whole entry): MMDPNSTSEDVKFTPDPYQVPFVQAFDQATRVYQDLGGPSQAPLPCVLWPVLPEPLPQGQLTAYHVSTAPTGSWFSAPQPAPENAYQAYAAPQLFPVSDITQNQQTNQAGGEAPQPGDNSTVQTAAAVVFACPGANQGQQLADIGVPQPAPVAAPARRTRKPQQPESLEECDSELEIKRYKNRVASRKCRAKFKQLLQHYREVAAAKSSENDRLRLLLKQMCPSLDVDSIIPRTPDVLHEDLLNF

[12] = HEK-293T cell viability reduction – luminescence, B-cell screen hits, cytotoxicity control for BCR NF-kB inhibitor project, dose response (AID 489021); assay type: functional, cell-based;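 further: HEK-293T cells carrying an NF-kB luciferase reporter; cells exposed to compound for about 14 hours before viability readout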
[13] = test system: INS1; assay: INS-1E survival protection against cytokine death – cell-based, luminescence, retest, dose response (AID 449756); assay type: functional; settings: Rattus norvegicus;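 further: cell death triggered by IL-1 beta plus TNF-alpha plus IFN-gamma mixture; protective hits raise ATP signal compared with cytokine alone wells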
[14] = reduction of Shn3 3'UTR-driven luciferase in osteoblasts – cell-based, Clone20 osteoblasts, firefly luciferase, cherry-picked, dose response (AID 624132); assay type: functional;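 further: firefly luciferase luminescence from reporter carrying the Shn3 3'UTR in osteoblasts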
[15] = loss of viability in HepG2 cells – cell-based, CellTiter-Glo, cherry-picked, cytotoxicity control for Shn3 inhibitor project, dose response (AID 624134); assay type: functional
[16] = non-specific 3'UTR reporter inhibition in Clone20-Shn3RL – cell-based, Renilla luciferase, cherry-picked, counter-screen for Shn3 inhibitor project, dose response (AID 624133); assay type: functional
[17] = target: T3, Galanin receptor type 3 (Homo sapiens, UniProt O60755); assay: Fluorescence-based cell-based primary high throughput dose response assay to identify antagonists of the Galanin Receptor 3 (GalR3).; assay type: functional
T3 sequence (O60755 whole entry): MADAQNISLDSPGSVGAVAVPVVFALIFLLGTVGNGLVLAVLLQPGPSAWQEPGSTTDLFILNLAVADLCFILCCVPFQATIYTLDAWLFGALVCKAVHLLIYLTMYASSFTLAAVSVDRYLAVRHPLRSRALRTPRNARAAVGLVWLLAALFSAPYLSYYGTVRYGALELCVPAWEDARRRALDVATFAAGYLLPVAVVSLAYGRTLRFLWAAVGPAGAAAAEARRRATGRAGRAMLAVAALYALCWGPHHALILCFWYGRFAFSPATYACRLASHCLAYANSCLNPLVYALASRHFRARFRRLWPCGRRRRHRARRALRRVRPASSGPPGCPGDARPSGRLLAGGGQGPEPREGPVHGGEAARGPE

[18] = cells; assay type: functional, cell-based; settings: HEK-CNG
[19] = target: T4, Bcl-2-like protein 10 (Homo sapiens, UniProt Q9HD36); assay: Bcl-B/TR3 peptide binding disruption – biochemical, fluorescence polarization, FITC-TR3 peptide, selectivity assay for Bfl-1 inhibitor project, primary screen (AID 748);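 further: fluorescence polarization from a fluorescein-labelled TR3 peptide binding purified Bcl-B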
T4 sequence (Q9HD36 whole entry): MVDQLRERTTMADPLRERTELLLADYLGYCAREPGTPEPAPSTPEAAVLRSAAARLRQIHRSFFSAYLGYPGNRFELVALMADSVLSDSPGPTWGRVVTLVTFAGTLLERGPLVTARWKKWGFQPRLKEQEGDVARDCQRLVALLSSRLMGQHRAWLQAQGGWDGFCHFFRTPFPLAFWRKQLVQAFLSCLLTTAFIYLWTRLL

[20] = target: Estrogen receptor beta (Homo sapiens, UniProt Q92731); assay: blockers of SRC-3 recruitment to ERβ – biochemical, ELISA, streptavidin-HRP readout, orthogonal assay, confirmation (AID 1060)
[21] = target: T5, Protein Tat (Human immunodeficiency virus type 1 group M subtype B (isolate HXB2)(HIV-1), UniProt P04608); assay type: functional;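 further: tat binding to TAR RNA read out by fluorescence polarization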
T5 sequence (P04608 whole entry): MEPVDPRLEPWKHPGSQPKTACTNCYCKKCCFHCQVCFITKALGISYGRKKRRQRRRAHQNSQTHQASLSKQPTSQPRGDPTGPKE

[22] = viability loss in THP-1 monocytes – THP-1 cells, cytotoxicity control for Vif-APOBEC3G degradation inhibitor project, dose response (AID 1117359); assay type: functional; settings: THP-1
[23] = target: T6, Glutathione-S-transferase (Schistosoma japonicum, UniProt Q26513); assay: GST-antibody interaction or FRET quenching – biochemical, TR-FRET, artefact control for Vif-APOBEC3G degradation inhibitor project, dose response (AID 1117362); assay type: functional
T6 sequence (Q26513 whole entry): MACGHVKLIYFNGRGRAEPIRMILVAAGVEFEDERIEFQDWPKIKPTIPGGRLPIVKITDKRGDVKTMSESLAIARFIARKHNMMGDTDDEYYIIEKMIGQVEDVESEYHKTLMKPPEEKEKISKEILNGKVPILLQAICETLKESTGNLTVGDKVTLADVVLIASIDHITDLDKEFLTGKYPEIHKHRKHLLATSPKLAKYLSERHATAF

[24] = target: Cytochrome P450 3A4 (Homo sapiens, UniProt P08684); settings: Potency;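 further: confirmatory qHTS run detecting inhibitors and substrates of CYP3A4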
[25] = target: Cytochrome P450 2C9 (Homo sapiens, UniProt P11712); settings: Potency
[26] = test system: Saccharomyces cerevisiae; assay: S. cerevisiae Caspase-1/ASC signal blockers IC50, NALP1 inhibitor project selectivity test (AID 488863); assay type: functional, organism-based
[27] = target: NACHT, LRR and PYD domains-containing protein 1 (Homo sapiens, UniProt Q9C000); assay: NALP1 inhibitors in yeast, dose response, luminescent (AID 488860); assay type: functional
[28] = target: Glucose-6-phosphate 1-dehydrogenase (Homo sapiens, UniProt P11413); assay: inhibition of Homo sapiens G6PD, dose series – biochemical, fluorescence, selectivity assay for P. falciparum G6PD inhibitor project, dose response (AID 504792); assay type: functional
[29] = target: DNA dC->dU-editing enzyme APOBEC-3G (Homo sapiens, UniProt Q9HC16); assay: Dose Response confirmation of small molecule APOBEC3G DNA Deaminase Inhibitors via a fluorescence-based single-stranded DNA deaminase assay. [Related pubchem assays (depositor defined):AID493012, AID493028]; assay type: functional
Sequence of DNA dC->dU-editing enzyme APOBEC-3G (Q9HC16 whole entry): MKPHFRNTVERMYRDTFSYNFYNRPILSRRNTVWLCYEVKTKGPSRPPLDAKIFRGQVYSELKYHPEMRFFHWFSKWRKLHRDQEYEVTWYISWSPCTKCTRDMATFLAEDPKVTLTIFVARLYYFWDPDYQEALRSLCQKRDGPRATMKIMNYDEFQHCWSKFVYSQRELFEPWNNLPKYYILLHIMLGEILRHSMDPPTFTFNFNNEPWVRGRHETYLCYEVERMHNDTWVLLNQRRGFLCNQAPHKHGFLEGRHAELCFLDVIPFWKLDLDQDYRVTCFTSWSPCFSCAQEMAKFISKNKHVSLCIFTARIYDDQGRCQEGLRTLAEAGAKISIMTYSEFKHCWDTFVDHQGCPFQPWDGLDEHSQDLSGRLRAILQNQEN

Sequence of Glucose-6-phosphate 1-dehydrogenase (P11413 whole entry): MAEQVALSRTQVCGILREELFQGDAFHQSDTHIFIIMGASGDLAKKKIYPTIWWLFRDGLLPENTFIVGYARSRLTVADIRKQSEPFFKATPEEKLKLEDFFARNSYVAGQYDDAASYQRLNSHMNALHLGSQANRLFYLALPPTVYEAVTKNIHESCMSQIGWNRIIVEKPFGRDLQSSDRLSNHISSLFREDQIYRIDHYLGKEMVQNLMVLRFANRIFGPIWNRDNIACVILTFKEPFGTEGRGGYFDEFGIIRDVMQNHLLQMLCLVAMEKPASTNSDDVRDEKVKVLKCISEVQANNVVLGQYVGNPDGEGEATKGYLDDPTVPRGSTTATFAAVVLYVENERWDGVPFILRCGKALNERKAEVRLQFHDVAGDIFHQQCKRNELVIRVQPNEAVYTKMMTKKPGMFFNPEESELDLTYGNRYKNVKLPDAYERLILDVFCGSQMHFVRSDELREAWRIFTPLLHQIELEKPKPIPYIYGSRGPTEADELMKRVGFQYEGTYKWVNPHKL
Sequence of Cytochrome P450 3A4 (P08684 whole entry): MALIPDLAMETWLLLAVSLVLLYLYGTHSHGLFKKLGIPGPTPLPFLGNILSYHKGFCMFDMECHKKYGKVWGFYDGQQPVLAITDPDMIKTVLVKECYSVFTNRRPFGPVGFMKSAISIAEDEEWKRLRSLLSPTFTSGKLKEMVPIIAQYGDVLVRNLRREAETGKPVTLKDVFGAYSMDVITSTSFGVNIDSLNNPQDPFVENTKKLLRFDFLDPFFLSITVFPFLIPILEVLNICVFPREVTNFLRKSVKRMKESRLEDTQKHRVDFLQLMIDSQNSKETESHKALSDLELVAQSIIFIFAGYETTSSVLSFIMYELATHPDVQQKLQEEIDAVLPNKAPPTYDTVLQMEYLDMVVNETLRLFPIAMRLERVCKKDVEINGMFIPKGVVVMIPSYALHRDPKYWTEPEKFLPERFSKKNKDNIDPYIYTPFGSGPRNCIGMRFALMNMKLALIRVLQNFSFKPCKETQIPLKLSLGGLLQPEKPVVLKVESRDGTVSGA
Sequence of Estrogen receptor beta (Q92731 whole entry): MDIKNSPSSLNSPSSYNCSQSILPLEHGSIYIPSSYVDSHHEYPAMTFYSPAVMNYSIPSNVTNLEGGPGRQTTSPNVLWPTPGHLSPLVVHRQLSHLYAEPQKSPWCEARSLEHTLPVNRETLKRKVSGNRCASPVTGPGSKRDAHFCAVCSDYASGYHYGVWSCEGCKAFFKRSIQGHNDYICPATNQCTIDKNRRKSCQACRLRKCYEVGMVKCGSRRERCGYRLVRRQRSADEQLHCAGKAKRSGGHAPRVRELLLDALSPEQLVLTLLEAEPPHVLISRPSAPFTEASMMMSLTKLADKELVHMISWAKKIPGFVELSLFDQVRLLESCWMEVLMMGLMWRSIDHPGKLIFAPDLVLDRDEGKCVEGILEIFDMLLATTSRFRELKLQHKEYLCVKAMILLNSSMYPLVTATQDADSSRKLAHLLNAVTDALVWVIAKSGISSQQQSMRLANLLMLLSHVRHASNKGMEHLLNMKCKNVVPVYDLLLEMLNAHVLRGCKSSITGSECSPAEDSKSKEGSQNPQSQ
Sequence of NACHT, LRR and PYD domains-containing protein 1 (Q9C000 1-1212 limits assumed): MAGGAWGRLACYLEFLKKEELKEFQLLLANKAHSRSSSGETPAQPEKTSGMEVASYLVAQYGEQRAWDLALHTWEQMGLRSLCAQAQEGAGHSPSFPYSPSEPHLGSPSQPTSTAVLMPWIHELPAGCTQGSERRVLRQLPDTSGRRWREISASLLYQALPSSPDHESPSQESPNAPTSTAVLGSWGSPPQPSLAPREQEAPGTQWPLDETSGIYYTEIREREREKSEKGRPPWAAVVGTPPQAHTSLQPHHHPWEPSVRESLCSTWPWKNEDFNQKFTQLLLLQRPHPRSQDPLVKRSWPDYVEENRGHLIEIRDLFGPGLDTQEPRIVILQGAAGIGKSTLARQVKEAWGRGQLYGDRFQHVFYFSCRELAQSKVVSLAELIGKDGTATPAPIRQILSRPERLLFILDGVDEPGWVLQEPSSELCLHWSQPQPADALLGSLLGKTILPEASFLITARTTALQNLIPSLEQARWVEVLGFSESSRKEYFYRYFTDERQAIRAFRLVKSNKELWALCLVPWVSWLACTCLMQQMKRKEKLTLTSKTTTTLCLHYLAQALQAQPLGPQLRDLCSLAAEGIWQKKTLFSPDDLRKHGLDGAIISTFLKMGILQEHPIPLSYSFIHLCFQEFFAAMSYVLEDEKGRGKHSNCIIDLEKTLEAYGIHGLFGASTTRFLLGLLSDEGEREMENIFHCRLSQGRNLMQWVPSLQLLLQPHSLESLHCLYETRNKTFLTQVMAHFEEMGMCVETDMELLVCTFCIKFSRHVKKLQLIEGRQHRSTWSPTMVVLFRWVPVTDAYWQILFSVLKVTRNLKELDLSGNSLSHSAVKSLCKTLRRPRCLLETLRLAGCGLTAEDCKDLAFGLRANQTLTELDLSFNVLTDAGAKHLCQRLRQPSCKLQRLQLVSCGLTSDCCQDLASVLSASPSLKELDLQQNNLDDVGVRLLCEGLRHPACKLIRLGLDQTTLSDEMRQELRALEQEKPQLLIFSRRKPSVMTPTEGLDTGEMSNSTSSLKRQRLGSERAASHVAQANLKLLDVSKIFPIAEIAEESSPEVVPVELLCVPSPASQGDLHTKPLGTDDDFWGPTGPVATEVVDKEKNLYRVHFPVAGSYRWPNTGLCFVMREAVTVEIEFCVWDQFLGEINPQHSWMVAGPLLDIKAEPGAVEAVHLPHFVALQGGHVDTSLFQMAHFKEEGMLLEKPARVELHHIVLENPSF
Sequence of NACHT, LRR and PYD domains-containing protein 1 (Q9C000 1213-1473 limits assumed): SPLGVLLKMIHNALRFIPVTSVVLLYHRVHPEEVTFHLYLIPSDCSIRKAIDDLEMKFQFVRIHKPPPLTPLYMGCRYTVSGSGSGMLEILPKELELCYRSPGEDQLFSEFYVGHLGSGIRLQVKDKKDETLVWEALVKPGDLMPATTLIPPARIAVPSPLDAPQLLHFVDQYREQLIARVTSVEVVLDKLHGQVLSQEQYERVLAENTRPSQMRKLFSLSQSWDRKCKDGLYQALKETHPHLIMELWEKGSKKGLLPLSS
Sequence of Cytochrome P450 2C9 (P11712 whole entry): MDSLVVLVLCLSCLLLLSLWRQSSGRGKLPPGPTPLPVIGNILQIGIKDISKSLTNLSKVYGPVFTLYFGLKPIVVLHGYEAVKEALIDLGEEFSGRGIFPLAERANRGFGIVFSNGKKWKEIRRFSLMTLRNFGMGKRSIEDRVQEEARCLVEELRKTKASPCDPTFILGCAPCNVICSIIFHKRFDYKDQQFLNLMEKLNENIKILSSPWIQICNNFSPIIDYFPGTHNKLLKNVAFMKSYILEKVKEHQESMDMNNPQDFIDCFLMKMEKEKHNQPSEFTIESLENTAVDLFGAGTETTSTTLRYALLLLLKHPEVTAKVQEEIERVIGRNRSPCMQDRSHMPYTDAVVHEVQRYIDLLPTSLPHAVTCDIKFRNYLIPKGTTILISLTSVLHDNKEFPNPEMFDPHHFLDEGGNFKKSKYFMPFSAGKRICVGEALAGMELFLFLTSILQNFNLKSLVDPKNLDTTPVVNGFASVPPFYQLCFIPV

## O=C(COC(=O)Cn1cnc2ccccc21)Nc1cc2c(cc1Cl)C(=O)c1ccccc1C2=O
[1]
  EC50: 0.609 µM (active)
[2]
  EC50: > 12 µM (not active)
[3]
  EC50: > 195 µM (inactive)
[4]
  EC50: 2.52 µM (active)
[5]
  EC50: < 0.1 µM (active)
[6]
  EC50: > 120 µM (not active)
[7]
  EC50: 40.4 µM (active)
[8]
  EC50: > 12 µM (not active)
[9]
  EC50: 1.19 µM (active)

## Cn1c(=O)n(C)c2cc(/C=C3/NC(=O)N(Cc4ccccc4)C3=O)ccc21
[10]
  IC50: 11.2 µM (not active)
[11]
  IC50: > 111 µM (not active)
[12]
  IC50: > 80 µM (inactive)

## CC(C)(C)c1ccc(-n2ncc3c2CCCC3NC(=O)C2(C(N)=O)CC2)cc1 (stereo unspecified)
[12]
  IC50: > 80 µM (inactive)
[13]
  AC50: 4.11 µM (active)
[14]
  AC50: 0.589 µM (active)
[15]
  AC50: 0.807 µM (active)
[16]
  AC50: 13.4 µM (active)
[17]
  IC50: 0.408 µM (active)
[18]
  EC50: > 29.9 µM (inactive)

## CN(C)c1ccc(NC(=O)Cn2cc3c(n2)CCCC3)cc1
[19]
  IC50: 21.8 µM (active)
[20]
  IC50: 0.326 µM (not active)
[21]
  IC50: > 100 µM (inconclusive)
[22]
  CC50: 22.2 µM (active)
[23]
  IC50: 22.1 µM (active)

## CC1CCC2C(=O)N3C(CCC(C)[C@H]3c3cccc(N4CCCC4=O)c3)C(=O)N2C1c1cccc(N2CCCC2=O)c1 (stereo partly specified)
[24]
  AC50: 2.51 µM (inconclusive)
[25]
  AC50: 2.51 µM (inconclusive)

## CCN(C(=O)COC(=O)c1cccnc1Nc1cccc(C(F)(F)F)c1)C1CCS(=O)(=O)C1 (stereo unspecified)
[26]
  IC50: > 100 µM (inactive)
[27]
  IC50: > 100 µM (inactive)

## CN(C)c1ccc(NC(=O)CN2C(=O)CC(c3ccccc3)=Nc3ccccc32)cc1
[19]
  IC50: > 100 µM (inactive)

## CCC1(C)CC(C(N)=S)CCO1 (stereo unspecified)
[28]
  IC50: > 80 µM (inactive)
[29]
  IC50: 33.2 µM (active)
